{
  "source": "patent US10695330B2",
  "about": "“Methods of treatment” (Global Blood Therapeutics, Inc., priority 2015, dated 2020)",
  "tested_on": "activated neutrophils",
  "test": "Oxidative burst in activated neutrophils",
  "type": "cell-based",
  "conditions": "in vitro",
  "excerpt": "Reactive oxygen species (ROS) released from activated white blood cells cause lung injury as well as fibrotic changes in patients with IPF. […] Thus, the compounds described herein could also provide a method to inhibit the adverse effects of inflammation in a patient. Reduction in systemic pro-inflammatory cytokines (tumor necrosis alpha and interleukin-6) also has the potential to exert a broad anti-inflammatory effect which would supplement the beneficial effect of alleviation of hypoxemia via increased hemoglobin-O2 affinity.",
  "data": [
    {"molecule": "O=Cc1ccc(CO)o1", "note": "[Compound 5-HMF, 5-hydroxymethyl-2-furfural, reference compound]", "values": [
      {"measurement": "anti-oxidative activity (oxidative burst)", "value": "does not display this activity"}
    ]}
  ]
}
